# Results: ChEMBL document CHEMBL3352178, “Antidepressant- and anxiolytic-like activity of 7-phenylpiperazinylalkyl-1,3-dimethyl-purine-2,6-dione derivatives with diversified 5-HT₁A receptor functional profile” (Bioorg Med Chem, 2015)
# pKi: −log10 of the molar value. Activity calls are given as the source filed them. No cut-off for these calls is given here.
# How the values were obtained:
# Mus musculus [1] = test: Induction of hypothermia in mouse assessed as change in body temperature at 5 mg/kg, ip administered 30 mins before test and measured 120 mins post dose; type: functional, organism-based; set-up: dose 5 mg/kg
# Mus musculus [2] = test: Anxiolytic-like activity in mouse assessed as increase in number of punished crossings at 0.156 mg/kg, ip dosed 60 mins before test co-administered with 0.625 mg/kg diazepam by four plate test; type: functional, organism-based
# Mus musculus [3] = test: Induction of hypothermia in mouse assessed as change in body temperature at 5 mg/kg, ip administered 30 mins before test and measured 60 mins post dose; type: functional, organism-based; set-up: dose 5 mg/kg
# Mus musculus [4] = test: Anxiolytic-like activity in mouse assessed as increase in number of punished crossings at 0.625 mg/kg, ip dosed 60 mins before test by four plate test; type: functional; conditions: route intraperitoneal
# Mus musculus [5] = test: Induction of hypothermia in mouse assessed as change in body temperature at 5 mg/kg, ip administered 30 mins before test and measured 90 mins post dose; type: functional, organism-based; set-up: dose 5 mg/kg
# Rattus norvegicus [6] = test: Induction of lower lip retraction in rat assessed as lower lip retraction scores at 5 mg/kg, ip dosed 15 mins before test; type: functional; conditions: route intraperitoneal
# Rattus norvegicus [7] = test: Inhibition of 8-OH-DPAT-induced lower lip retraction in rat assessed as lower lip retraction scores at 10 mg/kg, ip dosed 45 mins before 8-OH-DPAT; type: functional; conditions: route intraperitoneal
# Mus musculus [8] = test: Induction of hypothermia in mouse assessed as change in body temperature at 2.5 mg/kg, ip administered 30 mins before test and measured 90 mins post dose; type: functional, organism-based; set-up: dose 2.5 mg/kg
# [9] = target: 5-hydroxytryptamine receptor 7 (Homo sapiens, UniProt P34969); test: Displacement of [3H]]-5-CT from human cloned 5-HT7R expressed in HEK293 cells; type: cell-based
# Rattus norvegicus [10] = test: Induction of lower lip retraction in rat assessed as lower lip retraction scores at 1 mg/kg, ip dosed 15 mins before test; type: functional; conditions: route intraperitoneal
# Mus musculus [11] = test: Inhibition of (+/-)-DOI-induced head twitch response in mouse assessed as head twitches per 20 mins at 1.25 mg/kg, ip dosed 60 mins before (+/-)-DOI injection (reference value: 21.6 +/- 3.4/20 mins); type: functional; conditions: route intraperitoneal
# Rattus norvegicus [12] = test: Inhibition of 8-OH-DPAT-induced lower lip retraction in rat assessed as lower lip retraction scores at 5 mg/kg, ip dosed 45 mins before 8-OH-DPAT; type: functional; conditions: route intraperitoneal
# Mus musculus [13] = test: Induction of hypothermia in mouse assessed as change in body temperature at 2.5 mg/kg, ip administered 30 mins before test and measured 120 mins post dose; type: functional, organism-based; set-up: dose 2.5 mg/kg
# Mus musculus [14] = test: Induction of hypothermia in mouse assessed as change in body temperature at 5 mg/kg, ip administered 30 mins before test and measured 30 mins post dose; type: functional, organism-based; set-up: dose 5 mg/kg
# Rattus norvegicus [15] = test: Induction of lower lip retraction in rat assessed as lower lip retraction scores at 10 mg/kg, ip dosed 15 mins before test; type: functional; conditions: route intraperitoneal
# Rattus norvegicus [16] = test: Inhibition of 8-OH-DPAT-induced lower lip retraction in rat assessed as lower lip retraction scores at 1 mg/kg, ip dosed 45 mins before 8-OH-DPAT; type: functional; conditions: route intraperitoneal
# Mus musculus [17] = test: Induction of hypothermia in mouse assessed as change in body temperature at 2.5 mg/kg, ip administered 30 mins before test and measured 60 mins post dose; type: functional, organism-based; set-up: dose 2.5 mg/kg
# Mus musculus [18] = test: Effect on spontaneous locomotor activity in mouse at 0.312 mg/kg, ip; type: ADME, organism-based; set-up: dose 0.312 mg/kg, route intraperitoneal; conditions: in vivo
# Mus musculus [19] = test: Induction of hypothermia in mouse assessed as change in body temperature at 2.5 mg/kg, ip administered 30 mins before test and measured 30 mins post dose; type: functional, organism-based; set-up: dose 2.5 mg/kg
# [20] = target: T1, 5-hydroxytryptamine receptor 1A (Rattus norvegicus, UniProt P19327); test: Displacement of [3H]-8-OH-DPAT from 5-HT1AR in rat hippocampus; type: tissue-based
# T1 sequence (P19327 whole entry): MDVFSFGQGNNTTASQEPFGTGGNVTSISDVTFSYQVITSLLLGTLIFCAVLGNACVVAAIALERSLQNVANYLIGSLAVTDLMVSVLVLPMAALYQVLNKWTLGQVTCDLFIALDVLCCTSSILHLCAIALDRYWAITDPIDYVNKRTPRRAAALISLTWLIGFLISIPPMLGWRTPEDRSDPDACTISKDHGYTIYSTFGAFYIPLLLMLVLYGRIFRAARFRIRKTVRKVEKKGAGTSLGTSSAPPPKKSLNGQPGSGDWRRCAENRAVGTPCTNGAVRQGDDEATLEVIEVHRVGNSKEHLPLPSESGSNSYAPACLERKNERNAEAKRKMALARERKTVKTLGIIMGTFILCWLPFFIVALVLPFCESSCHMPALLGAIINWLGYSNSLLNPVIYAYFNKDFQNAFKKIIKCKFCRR
# [21] = target: 5-hydroxytryptamine receptor 2A (Rattus norvegicus, UniProt P14842); test: Displacement of [3H]-ketanserin from 5-HT2AR in rat cortex
# Mus musculus [22] = test: Effect on spontaneous locomotor activity in mouse at 0.625 mg/kg, ip; type: ADME, organism-based; set-up: dose 0.625 mg/kg, route intraperitoneal; conditions: in vivo
# D(2) dopamine receptor = D(2) dopamine receptor (Rattus norvegicus, UniProt P61169); test: Displacement of [3H]-spiperone from dopamine D2 receptor in rat striatum
# Mus musculus [23] = test: Induction of hypothermia in mouse assessed as change in body temperature at 2.5 mg/kg, ip administered 30 mins before test and measured 30 mins post dose in presence of 0.3 mg/kg, sc 5HT1A receptor antagonist WAY 100635; type: functional, organism-based
# Mus musculus [24] = test: Antidepressant-like activity in mouse assessed as reduction in immobility time at 0.156 to 5 mg/kg, ip dosed 60 mins before test by forced swim test; type: functional, organism-based
# Mus musculus [25] = test: Inhibition of (+/-)-DOI-induced head twitch response in mouse assessed as head twitches per 20 mins at 5 mg/kg, ip dosed 60 mins before (+/-)-DOI injection (reference value: 21.6 +/- 3.4/20 mins); type: functional; conditions: route intraperitoneal
# Mus musculus [26] = test: Inhibition of (+/-)-DOI-induced head twitch response in mouse assessed as head twitches per 20 mins at 10 mg/kg, ip dosed 60 mins before (+/-)-DOI injection (reference value: 21.6 +/- 3.4/20 mins); type: functional; conditions: route intraperitoneal
# Mus musculus [27] = test: Inhibition of (+/-)-DOI-induced head twitch response in mouse assessed as head twitches per 20 mins at 0.625 mg/kg, ip dosed 60 mins before (+/-)-DOI injection (reference value: 21.6 +/- 3.4/20 mins); type: functional; conditions: route intraperitoneal
# [28] = target: 5-hydroxytryptamine receptor 6 (Homo sapiens, UniProt P50406); test: Displacement of [3H]LSD from human cloned 5-HT6R expressed in HEK293 cells; type: cell-based
# Mus musculus [29] = test: Inhibition of (+/-)-DOI-induced head twitch response in mouse dosed intraperitoneally 60 mins before (+/-)-DOI injection; type: functional
# Mus musculus [30] = test: Induction of hypothermia in mouse assessed as change in body temperature at 2.5 mg/kg, ip administered 30 mins before test and measured 60 mins post dose in presence of 0.3 mg/kg, sc 5HT1A receptor antagonist WAY 100635; type: functional, organism-based
# Mus musculus [31] = test: Inhibition of (+/-)-DOI-induced head twitch response in mouse assessed as head twitches per 20 mins at 2.5 mg/kg, ip dosed 60 mins before (+/-)-DOI injection (reference value: 21.6 +/- 3.4/20 mins); type: functional; conditions: route intraperitoneal
# Mus musculus [32] = test: Anxiolytic-like activity in mouse assessed as increase in number of punished crossings at 0.312 mg/kg, ip dosed 60 mins before test by four plate test; type: functional; conditions: route intraperitoneal
# Mus musculus [33] = test: Antidepressant-like activity in mouse assessed as reduction in immobility time at 10 to 20 mg/kg, ip dosed 60 mins before test by forced swim test; type: functional, organism-based
# Mus musculus [34] = test: Effect on spontaneous locomotor activity in ip dosed mouse during 2 to 6 mins; type: ADME, organism-based; conditions: in vivo
# 5-hydroxytryptamine receptor 6, sequence (P50406 whole entry): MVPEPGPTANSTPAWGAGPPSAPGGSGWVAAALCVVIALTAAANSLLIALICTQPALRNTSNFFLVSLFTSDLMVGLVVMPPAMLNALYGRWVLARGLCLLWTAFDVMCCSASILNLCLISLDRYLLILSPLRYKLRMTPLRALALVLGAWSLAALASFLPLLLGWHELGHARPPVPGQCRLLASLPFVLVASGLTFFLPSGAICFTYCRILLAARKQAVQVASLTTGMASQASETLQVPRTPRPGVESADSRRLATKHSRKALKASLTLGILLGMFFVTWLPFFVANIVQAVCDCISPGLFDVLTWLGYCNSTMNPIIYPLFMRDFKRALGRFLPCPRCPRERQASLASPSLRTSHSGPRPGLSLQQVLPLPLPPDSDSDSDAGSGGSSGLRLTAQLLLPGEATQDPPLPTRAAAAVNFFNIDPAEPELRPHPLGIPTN
# D(2) dopamine receptor, sequence (P61169 whole entry): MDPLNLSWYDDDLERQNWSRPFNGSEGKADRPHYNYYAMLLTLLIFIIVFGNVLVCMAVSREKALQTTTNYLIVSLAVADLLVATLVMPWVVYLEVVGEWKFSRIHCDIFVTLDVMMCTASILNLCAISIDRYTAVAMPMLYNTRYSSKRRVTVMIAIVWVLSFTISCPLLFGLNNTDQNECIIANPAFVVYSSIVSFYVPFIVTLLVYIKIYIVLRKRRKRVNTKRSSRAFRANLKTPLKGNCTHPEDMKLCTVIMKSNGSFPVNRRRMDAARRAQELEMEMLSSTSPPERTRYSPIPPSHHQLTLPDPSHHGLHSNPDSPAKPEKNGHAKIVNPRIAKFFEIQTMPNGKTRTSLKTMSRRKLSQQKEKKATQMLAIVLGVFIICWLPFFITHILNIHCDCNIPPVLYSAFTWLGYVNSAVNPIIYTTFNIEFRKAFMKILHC
# 5-hydroxytryptamine receptor 2A, sequence (P14842 whole entry): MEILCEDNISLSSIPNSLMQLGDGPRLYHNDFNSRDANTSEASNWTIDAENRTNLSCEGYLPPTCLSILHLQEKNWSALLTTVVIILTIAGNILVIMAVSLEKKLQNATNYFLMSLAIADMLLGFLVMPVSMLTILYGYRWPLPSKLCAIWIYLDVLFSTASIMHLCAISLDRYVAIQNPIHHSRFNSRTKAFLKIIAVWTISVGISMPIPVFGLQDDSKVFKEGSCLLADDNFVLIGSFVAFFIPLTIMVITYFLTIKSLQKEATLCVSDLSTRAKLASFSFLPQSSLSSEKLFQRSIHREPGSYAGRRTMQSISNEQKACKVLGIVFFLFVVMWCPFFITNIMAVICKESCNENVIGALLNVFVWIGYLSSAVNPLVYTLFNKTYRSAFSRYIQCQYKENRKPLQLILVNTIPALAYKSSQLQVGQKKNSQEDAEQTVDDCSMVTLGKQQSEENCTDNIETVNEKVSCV
# 5-hydroxytryptamine receptor 7, sequence (P34969 whole entry): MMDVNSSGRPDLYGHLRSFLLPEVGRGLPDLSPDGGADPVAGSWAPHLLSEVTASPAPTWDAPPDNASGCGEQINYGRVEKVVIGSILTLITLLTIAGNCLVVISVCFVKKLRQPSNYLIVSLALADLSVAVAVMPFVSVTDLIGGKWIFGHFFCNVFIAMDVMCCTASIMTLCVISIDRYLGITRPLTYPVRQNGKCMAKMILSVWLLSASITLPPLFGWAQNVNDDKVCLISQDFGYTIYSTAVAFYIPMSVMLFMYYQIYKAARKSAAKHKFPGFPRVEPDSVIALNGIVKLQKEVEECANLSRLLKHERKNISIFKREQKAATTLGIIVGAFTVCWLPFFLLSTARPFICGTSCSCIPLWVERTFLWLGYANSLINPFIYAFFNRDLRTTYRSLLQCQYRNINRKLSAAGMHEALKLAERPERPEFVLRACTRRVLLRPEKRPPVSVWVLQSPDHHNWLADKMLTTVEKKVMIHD
structure (smiles),measurement,setting,value
Cl.Cn1c(=O)c2c(ncn2CCCCCN2CCN(c3cccc(Cl)c3)CC2)n(C)c1=O,deltaT,Mus musculus [1],0.3 °C
same,Activity,Mus musculus [2],Active
same,deltaT,Mus musculus [3],-1.4 °C
same,Activity,Mus musculus [4],57%
same,deltaT,Mus musculus [5],-1.1 °C
same,Activity,Rattus norvegicus [6],0.3
same,Activity,Rattus norvegicus [7],0.5
same,deltaT,Mus musculus [8],-1.5 °C
same,pKi,[9],6.88
same,Activity,Rattus norvegicus [10],0.2
same,Activity,Mus musculus [11],10.8
same,Activity,Rattus norvegicus [12],1.1
same,deltaT,Mus musculus [13],-1.3 °C
same,deltaT,Mus musculus [14],-2.2 °C
same,Activity,Rattus norvegicus [15],0.1
same,Activity,Rattus norvegicus [16],1.8
same,deltaT,Mus musculus [17],-1.8 °C
same,Activity,Mus musculus [18],Non-toxic
same,deltaT,Mus musculus [19],-2.1 °C
same,pKi,[20],8.30
same,pKi,[21],7.27
same,Activity,Mus musculus [22],Non-toxic
same,pKi,D(2) dopamine receptor,7.40
same,deltaT,Mus musculus [23],-1.8 °C
same,Activity,Mus musculus [24],inactive
same,Activity,Mus musculus [25],5.8
same,Activity,Mus musculus [26],1.3
same,Activity,Mus musculus [27],12.8
same,pKi,[28],5.92
same,inhibition,Mus musculus [29],Dose-dependent effect
same,ED50,"Mus musculus [29]; ip, read-out: ID50 (the source's name)",2.54 mg/kg
same,deltaT,Mus musculus [30],-2 °C
same,Activity,Mus musculus [31],8.2
same,Activity,Mus musculus [32],71%
CN(C)CCCN1c2ccccc2CCc2ccccc21 [IMIPRAMINE],Activity,Mus musculus [33],Active
same,Activity,Mus musculus [34],Non-toxic
COc1ccccc1N1CCN(CCCCn2cnc3c2c(=O)n(C)c(=O)n3C)CC1,pKi,[9],6.36
same,pKi,[20],8.92
same,pKi,[21],5.98
same,pKi,D(2) dopamine receptor,7.19
same,pKi,[28],5.71
Cn1c(=O)c2c(ncn2CCCCN2CCN(c3ccc(Cl)c(Cl)c3)CC2)n(C)c1=O,pKi,[9],6.75
same,pKi,[20],6.98
same,pKi,[21],6.34
same,pKi,D(2) dopamine receptor,7.14
same,pKi,[28],5.72
